The text below walks through data of US20070043024A1, “Azacyclic compounds as inhibitors of sensory neurone specific channels” (priority 2003, published 2007).

The target in the test is T1, human Nav1.8 (hNav1.8) ion channel (Homo sapiens, UniProt Q9Y5Y9).
T1 construct: expressed in transfected cells
The experiment in a line: Inhibition of human Nav1.8 stably expressed in SH-SY-5Y cells (membrane potential dye fluorescence assay). Format: cell-based. The procedure:
Inhibition of Human Nav1.8 Stably Expressed in SH-SY-5Y Cells
A SH-SY-5Y neuroblastoma cell line stably expressing the human […] (hNav1.8) ion channel was constructed. This cell line has been used to develop a medium to high throughput assay for determining the ability of test compounds to inhibit membrane depolarisation mediated via the hNav1.8 channel.
SH-SY-5Y hNav1.8 are grown in adherent monolayer culture using 50:50 Ham's F-12/EMEM tissue culture medium supplemented with 15% (v/v) foetal bovine serum; 2 mM L-glutamine, 1% NEAA and 600 μg·ml^−1 Geneticin sulphate. Cells are removed from the tissue culture flask using trypsin/EDTA and re-plated into black walled, clear bottom 96-well assay plates at 50,000 cells·well^−1 24 hours prior to assay.
On the day of assay the cell assay plates are washed to remove cell culture medium using a sodium free assay buffer (145 mM tetramethyl ammonium chloride; 2 mM calcium chloride; 0.8 mM magnesium chloride hexahydrate; 10 mM HEPES; 10 mM glucose; 5 mM potassium chloride, pH 7.4). Fluorescent membrane potential dye solution (FLIPR™ membrane potential dye, Molecular Devices Corporation), containing 10 μM of a pyrethroid to prevent channel inactivation and 250 nM tetrodotoxin (TTX) to reduce interference from TTX-sensitive sodium channels present in the cell line. Test compound, initially dissolved in dimethyl sulfoxide but further diluted in sodium free buffer, is added to achieve the final test concentration range of 100 μM-0.05 μM.
Cell plates are incubated for 30 minutes at room temperature to allow equilibration of dye and test compound. Plates are then transferred to a fluorescence plate reader for fluorescence measurement using an excitation wavelength of 530 nm whilst measuring fluorescence emission at 565 nm. Baseline fluorescence levels are first determined before the addition of a sodium containing buffer (220 mM sodium chloride; 2 mM calcium chloride; 0.8 mM magnesium chloride hexahydrate; […]; 10 mM glucose; 5 mM potassium chloride. pH 7.4) to cause membrane depolarisation in those cells where channel block has not been effected (final sodium concentration=72.5 mM). Membrane depolarisation is registered by an increase in fluorescence emission at 565 nm.
The change in fluorescence seen in each test well upon the addition of sodium containing buffer is calculated relative to the baseline fluorescence for that well. This figure is then used for calculating the IC50 for each test compound.

[1] abbreviates: Table 2 (compound numbers of the list in the description), SH-SY-5Y hNav1.8 cells, inhibition of membrane depolarisation, FLIPR membrane potential dye, 250 nM TTX, test concentration range 100 μM-0.05 μM, read-out: IC50.
The mark [2] stands for this setting: Table 1, SH-SY-5Y hNav1.8 cells, inhibition of membrane depolarisation, FLIPR membrane potential dye, 250 nM TTX, test concentration range 100 μM-0.05 μM, read-out: IC50.

Where two headings read alike, the source gives them in different places.

T1 sequence (Q9Y5Y9 whole entry): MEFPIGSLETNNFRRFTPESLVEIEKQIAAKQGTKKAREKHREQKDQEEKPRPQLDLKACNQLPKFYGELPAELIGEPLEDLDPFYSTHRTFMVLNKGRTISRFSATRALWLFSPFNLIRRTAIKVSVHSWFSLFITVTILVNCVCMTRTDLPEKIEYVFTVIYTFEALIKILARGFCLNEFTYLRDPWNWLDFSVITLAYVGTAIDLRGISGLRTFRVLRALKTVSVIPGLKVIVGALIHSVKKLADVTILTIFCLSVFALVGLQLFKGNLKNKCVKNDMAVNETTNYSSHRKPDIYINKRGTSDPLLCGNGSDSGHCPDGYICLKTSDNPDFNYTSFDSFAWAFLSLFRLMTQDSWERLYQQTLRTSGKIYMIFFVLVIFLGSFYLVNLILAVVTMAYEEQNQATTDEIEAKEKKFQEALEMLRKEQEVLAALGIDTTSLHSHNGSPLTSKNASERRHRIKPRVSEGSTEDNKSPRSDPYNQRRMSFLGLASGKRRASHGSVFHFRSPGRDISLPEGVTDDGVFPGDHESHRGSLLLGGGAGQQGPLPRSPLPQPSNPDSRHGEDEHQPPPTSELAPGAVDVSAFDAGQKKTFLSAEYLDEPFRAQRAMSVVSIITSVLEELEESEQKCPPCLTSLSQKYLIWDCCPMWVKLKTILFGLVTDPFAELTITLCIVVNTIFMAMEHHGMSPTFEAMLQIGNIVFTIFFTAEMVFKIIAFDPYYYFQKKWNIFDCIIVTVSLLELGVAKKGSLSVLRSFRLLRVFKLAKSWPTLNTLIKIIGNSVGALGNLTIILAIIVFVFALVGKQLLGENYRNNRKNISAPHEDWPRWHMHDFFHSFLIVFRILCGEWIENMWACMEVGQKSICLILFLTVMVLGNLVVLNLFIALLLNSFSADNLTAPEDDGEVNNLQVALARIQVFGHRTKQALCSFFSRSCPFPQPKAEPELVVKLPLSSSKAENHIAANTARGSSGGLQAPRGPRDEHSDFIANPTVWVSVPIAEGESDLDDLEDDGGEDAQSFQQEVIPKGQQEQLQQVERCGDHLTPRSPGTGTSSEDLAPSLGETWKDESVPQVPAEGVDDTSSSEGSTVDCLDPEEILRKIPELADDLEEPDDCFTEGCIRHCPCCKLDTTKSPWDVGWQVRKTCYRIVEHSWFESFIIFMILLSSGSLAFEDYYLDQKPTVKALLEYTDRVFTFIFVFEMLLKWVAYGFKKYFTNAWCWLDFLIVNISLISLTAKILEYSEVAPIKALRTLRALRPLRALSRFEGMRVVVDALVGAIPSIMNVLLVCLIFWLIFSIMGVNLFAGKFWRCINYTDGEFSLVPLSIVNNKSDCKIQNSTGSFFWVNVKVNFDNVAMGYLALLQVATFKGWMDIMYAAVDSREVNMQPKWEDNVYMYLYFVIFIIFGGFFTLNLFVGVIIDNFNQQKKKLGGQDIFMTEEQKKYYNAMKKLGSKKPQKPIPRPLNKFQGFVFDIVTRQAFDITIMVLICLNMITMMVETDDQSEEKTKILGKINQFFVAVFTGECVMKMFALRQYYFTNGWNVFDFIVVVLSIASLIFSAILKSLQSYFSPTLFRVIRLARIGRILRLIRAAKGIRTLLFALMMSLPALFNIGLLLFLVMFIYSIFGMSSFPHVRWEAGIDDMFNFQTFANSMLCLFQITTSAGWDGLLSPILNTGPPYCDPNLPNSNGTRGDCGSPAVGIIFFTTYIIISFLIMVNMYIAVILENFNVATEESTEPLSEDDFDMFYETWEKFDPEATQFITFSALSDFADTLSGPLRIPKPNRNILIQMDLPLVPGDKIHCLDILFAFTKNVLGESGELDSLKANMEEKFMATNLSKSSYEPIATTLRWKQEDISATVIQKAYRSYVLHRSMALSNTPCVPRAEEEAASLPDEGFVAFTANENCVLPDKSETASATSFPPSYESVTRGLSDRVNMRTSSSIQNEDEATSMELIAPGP

For orientation: IC50 means the concentration needed to halve the response being measured. Consider `COc1cccc2c1CN(CCNC(=S)NC(c1ccccc1)c1ccccc1)CC2` [Compound 133, 1-Benzhydryl-3-[2-(8-methoxy-3,4-dihydro-1H-isoquinolin-2-yl)-ethyl]-thiourea], for which, under setting [1], the IC50 turned out to be 600 nM.

As to `Nc1cccc2c1CCN(CC(=O)NCC(c1ccccc1)c1ccccc1)C2` [Compound 123, 2-(5-Amino-3,4-dihydro-1H-isoquinolin-2-yl)-N-(2,2-diphenyl-ethyl)-acetamide], the 50% inhibitory concentration (IC50) under setting [1] worked out at 2890 nM.

With `CS(=O)(=O)Oc1cccc2c1CN(CC(=O)N1c3ccccc3Oc3ccccc31)C2` [Compound 203, Methanesulfonic acid 2-(2-oxo-2-phenoxazin-10-yl-ethyl)-2,3-dihydro-1H-isoindol-4-yl ester], the IC50 under setting [1] came out at 1110 nM.

For `COc1cccc2c1CN(CC(=O)N1c3ccccc3Sc3ccc(SC)cc31)CC2` [Compound 159, 2-(8-Methoxy-3,4-dihydro-1H-isoquinolin-2-yl)-1-(2-methylsulfanyl-phenothiazin-10-yl)-ethanone], the IC50 under setting [1] was determined as 20800 nM.

On to `Oc1cccc2c1CN(Cc1ccc(SC(F)(F)F)cc1)CC2` [Example 94, 2-(4-Trifluoromethylsulfanyl-benzyl)-1,2,3,4-tetrahydro-isoquinolin-8-ol], for which the half-inhibitory concentration (IC50) under setting [2] was found to be 2170 nM.

For the molecule `O=C(CN1CCc2ccc(O)cc2C1)N1c2ccccc2Oc2ccccc21` [Compound 193, 2-(7-Hydroxy-3,4-dihydro-1H-isoquinolin-2-yl)-1-phenoxazin-10-yl-ethanone], the half-maximal inhibitory concentration (IC50) under setting [1] came out at 3170 nM.

As to `CCOc1cccc2c1CN(CC(=O)NCCCC(c1ccccc1)c1ccccc1)CC2` [Compound 92, N-(4,4-Diphenyl-butyl)-2-(8-ethoxy-3,4-dihydro-1H-isoquinolin-2-yl)-acetamide], the IC50 under setting [1] is 4820 nM.

Consider `COc1cccc2c1CN(CC(=O)NCCC(c1ccccc1)c1ccccc1)C2` [Compound 88, N-(3,3-diphenyl-propyl)-2-(4-methoxy-1,3-dihydro-isoindol-2-yl)-acetamide], for which the IC50 under setting [1] was found to be 2090 nM.

For the molecule `Oc1cccc2c1CN(CC(c1ccccc1)c1ccccc1)CC2` [Example 11, 2-(2,2-Diphenyl-ethyl)-1,2,3,4-tetrahydro-isoquinoline-8-ol], the IC50 under setting [2] amounted to 600 nM.

As for `CC(=O)c1ccc2c(c1)N(C(=O)CN1CCc3cccc(O)c3C1)c1ccccc1S2` [Compound 147, 1-(2-Acetyl-phenothiazin-10-yl)-2-(8-hydroxy-3,4-dihydro-1H-isoquinolin-2-yl)-ethanone], the half-maximal inhibitory concentration (IC50) under setting [1] was determined as 2040 nM.

In the case of `COc1cc2c(cc1OC)CN(CC(=O)NN(c1ccccc1)c1ccccc1)CC2` [Compound 169, (6,7-Dimethoxy-3,4-dihydro-1H-isoquinolin-2-yl)-acetic acid N′,N′-diphenyl-hydrazide], the IC50 under setting [1] came out at 29900 nM.

As for `COc1cccc2c1CN(CC(=O)N1c3ccccc3OCC1c1ccccc1)CC2` (stereo not drawn) [Compound 71, 2-(8-methoxy-3,4-dihydro-1H-isoquinolin-2-yl)-1-(3-phenyl-2,3-dihydro-benzo[1,4]oxazin-4-yl)-ethanone], under setting [1], the IC50 was 2180 nM.

In the case of `O=C(CN1CCc2cccc(O)c2C1)N1c2ccccc2Oc2ccccc21` [Compound 144, 2-(8-Hydroxy-3,4-dihydro-1H-isoquinolin-2-yl)-1-phenoxazin-10-yl-ethanone], the IC50 under setting [1] was 500 nM.

`COc1cccc2c1CN(CC(=O)NCCSC(c1ccccc1)c1ccccc1)CC2` [Compound 96, N-(2-Benzhydrylsulfanyl-ethyl)-2-(8-methoxy-3,4-dihydro-1H-isoquinolin-2-yl)-acetamide] came in with an IC50 of 1110 nM.

`Nc1cccc2c1CN(CC(=O)NCC(c1ccccc1)c1ccccc1)C2` [Compound 98, 2-(4-Amino-1,3-dihydro-isoindol-2-yl)-N-(2,2-diphenyl-ethyl)-acetamide]: the half-inhibitory concentration (IC50) under setting [1] worked out at 6760 nM.

As to `COc1cccc2c1CN(CC(=O)Nc1ccc(Oc3ccccc3)cc1)CC2` [Compound 172, 2-(8-Methoxy-3,4-dihydro-1H-isoquinolin-2-yl)-N-(4-phenoxy-phenyl)-acetamide], the IC50 under setting [1] came to 6270 nM.

With `COc1cccc2c1CN(CCNC(=O)N1c3ccccc3Sc3ccccc31)CC2` [Compound 162, Phenothiazine-10-carboxylic acid [2-(8-methoxy-3,4-dihydro-1H-isoquinolin-2-yl)-ethyl]-amide], the IC50 under setting [1] came out at 970 nM.

For `COc1ccc(C2COc3ccccc3N2C(=O)CN2CCc3cccc(OC)c3C2)cc1` (stereo not drawn) [Compound 212, 2-(8-Methoxy-3,4-dihydro-1H-isoquinolin-2-yl)-1-[3-(4-methoxy-phenyl)-2,3-dihydro-benzo[1,4]oxazin-4-yl]-ethanone], the concentration for half-maximal inhibition (IC50) under setting [1] worked out at 5060 nM.

For the molecule `COc1cccc2c1CN(CCCC(c1ccc(F)cc1)c1ccc(F)cc1)CC2` [Example 10, 2-[4,4-Bis-(4-fluoro-phenyl)-butyl]-8-methoxy-1,2,3,4-tetrahydro-isoquinoline], the 50% inhibitory concentration (IC50) under setting [2] came out at 480 nM.

`COc1cccc2c1CN(CC(=O)N1c3ccccc3Oc3cnn(C)c31)CC2` [Compound 199, 2-(8-Methoxy-3,4-dihydro-1H-isoquinolin-2-yl)-1-(1-methyl-1H-4-oxa-1,2,9-triaza-cyclopenta[b]naphthalen-9-yl)-ethanone]: the 50% inhibitory concentration (IC50) under setting [1] was found to be 8260 nM.

With `COc1cc2c(cc1OC)CN(CC(=O)N1c3ccccc3Sc3ccc(SC)cc31)CC2` [Compound 156, 2-(6,7-Dimethoxy-3,4-dihydro-1H-isoquinolin-2-yl)-1-(2-methylsulfanyl-phenothiazin-10-yl)-ethanone], under setting [1], the concentration for half-maximal inhibition (IC50) is 2370 nM.

Consider `O=C(CN1CCc2cccc(O)c2C1)N1c2ccccc2Sc2ccccc21` [Compound 139, 2-(8-Hydroxy-3,4-dihydro-1H-isoquinolin-2-yl)-1-phenothiazin-10-yl-ethanone], for which the half-maximal inhibitory concentration (IC50) under setting [1] was 1250 nM.

Consider `COc1cc2c(cc1OC)CN(CCC(=O)NCCC(c1ccccc1)c1ccccc1)CC2` [Compound 125, 3-(6,7-Dimethoxy-3,4-dihydro-1H-isoquinolin-2-yl)-N-(3,3-diphenyl-propyl)-propionamide], for which the IC50 under setting [1] came out at 380 nM.

For `Oc1cccc2c1CN(CCN(Cc1ccccc1)Cc1ccccc1)CC2` [Example 8], the 50% inhibitory concentration (IC50) under setting [2] turned out to be 410 nM.

Turning to `COc1cccc2c1CN(CC(=O)N1c3ccccc3OCC1C)CC2` (stereo not drawn) [Compound 205, 2-(8-Methoxy-3,4-dihydro-1H-isoquinolin-2-yl)-1-(3-methyl-2,3-dihydro-benzo[1,4]oxazin-4-yl)-ethanone], the IC50 under setting [1] was 4630 nM.

Regarding `O=C(CN1Cc2ccccc2C1)NC(c1ccc(F)cc1)c1ccc(F)cc1` [Compound 118, N-[Bis-(4-fluoro-phenyl)-methyl]-2-(1,3-dihydro-isoindol-2-yl)-acetamide], under setting [1], the IC50 came to 10200 nM.

`COc1cccc2c1CN(C(C)C(=O)N1c3ccccc3Oc3ccccc31)C2` (stereo not drawn) [Compound 217, 2-(4-Methoxy-1,3-dihydro-isoindol-2-yl)-1-phenoxazin-10-yl-propan-1-one]: the IC50 under setting [1] was determined as 1960 nM.

Regarding `Nc1cccc2c1CN(CC(=O)N1c3ccccc3Oc3ccccc31)CC2` [Compound 175, 2-(8-Amino-3,4-dihydro-1H-isoquinolin-2-yl)-1-phenoxazin-10-yl-ethanone], the IC50 under setting [1] stood at 1530 nM.

On to `O=C(CNC(c1ccccc1)c1ccccc1)N1CCc2ccccc2C1` [Example 31, 2-(Benzhydryl-amino)-1-(3,4-dihydro-1H-isoquinolin-2-yl)-ethanone], for which the IC50 under setting [2] came out at 1850 nM.

With `COc1cc2c(cc1OC)CN(CC(=O)N1c3ccccc3Sc3ccc(C(F)(F)F)cc31)CC2` [Compound 154, 2-(6,7-Dimethoxy-3,4-dihydro-1H-isoquinolin-2-yl)-1-(2-trifluoromethyl-phenothiazin-10-yl)-ethanone], the IC50 under setting [1] amounted to 12400 nM.

For the molecule `O=C(CN1CCc2cc(O)ccc2C1)N1c2ccccc2Oc2ccccc21` [Compound 194, 2-(6-Hydroxy-3,4-dihydro-1H-isoquinolin-2-yl)-1-phenoxazin-10-yl-ethanone], the half-inhibitory concentration (IC50) under setting [1] was 2890 nM.

`COc1cccc2c1CN(CCNC(=S)NCC(c1ccccc1)c1ccccc1)CC2` [Compound 137, 1-(2,2-Diphenyl-ethyl)-3-[2-(8-methoxy-3,4-dihydro-1H-isoquinolin-2-yl)-ethyl]-thiourea]: under setting [1], the concentration for half-maximal inhibition (IC50) came to 440 nM.

Turning to `COc1ccc(OC)c(C2COc3ccccc3N2C(=O)CN2CCc3cccc(OC)c3C2)c1` (stereo not drawn) [Compound 213, 1-[3-(2,5-Dimethoxy-phenyl)-2,3-dihydro-benzo[1,4]oxazin-4-yl]-2-(8-methoxy-3,4-dihydro-1H-isoquinolin-2-yl)-ethanone], the 50% inhibitory concentration (IC50) under setting [1] was determined as 8240 nM.
